Measured values as given in ChEMBL document CHEMBL3885881, “DrugMatrix”.

Organism: Rattus norvegicus
Assay: DrugMatrix - Regimen: Daily Repeat
Assay type: toxicity, organism-based, Sprague-Dawley
Design: regimen Daily Repeat, gender Male, age 6-8 weeks
Conditions: in vivo, po, route oral GAVAGE, […]; for ABSOLUTE BASOPHIL / ABSOLUTE EOSINOPHIL / ABSOLUTE LYMPHOCYTE / ABSOLUTE MONOCYTE / ABSOLUTE SEGMENTED NEUTROPHIL / BASOPHIL / EOSINOPHIL / ERYTHROCYTE COUNT / HEMATOCRIT / HEMOGLOBIN / LEUKOCYTE COUNT / LYMPHOCYTE / MEAN CORPUSCULAR HEMOGLOBIN / MEAN CORPUSCULAR HEMOGLOBIN CONCENTRATION / MEAN CORPUSCULAR VOLUME / MONOCYTE / NEUTROPHIL / NUCLEATED RED BLOOD CELLS / PLATELET COUNT: tissue Blood; for ALANINE AMINOTRANSFERASE / ALBUMIN / ALKALINE PHOSPHATASE / ASPARTATE AMINOTRANSFERASE / BLOOD UREA NITROGEN / CARBON DIOXIDE / CHLORIDE / CHOLESTEROL / CREATINE PHOSPHOKINASE / CREATININE / GLUCOSE / LACTATE DEHYDROGENASE / LIPASE / PHOSPHORUS / POTASSIUM / SODIUM / TOTAL BILIRUBIN / TOTAL PROTEIN / URIC ACID: tissue Plasma
[1] = 52 mg/kg, 72 h, dose level High, time 3 day
[2] = 52 mg/kg, 120 h, dose level High, time 5 day
[3] = 72 h, dose 5.2 mg/Kg, dose level Low, time 3 day
[4] = 120 h, dose 5.2 mg/Kg, dose level Low, time 5 day

CC(C(=O)O)c1cccc(Oc2ccccc2)c1 (configuration not stated) [FENOPROFEN]
ABSOLUTE BASOPHIL [1]: 0 CELLS/uL
ABSOLUTE EOSINOPHIL [1]: 0 CELLS/uL
ABSOLUTE LYMPHOCYTE [1]: 16297.67 CELLS/uL
ABSOLUTE MONOCYTE [1]: 471.33 CELLS/uL
ABSOLUTE SEGMENTED NEUTROPHIL [1]: 2164.33 CELLS/uL
BASOPHIL [1]: 0%
EOSINOPHIL [1]: 0%
ERYTHROCYTE COUNT [1]: 5.47 x10E6/uL
HEMATOCRIT [1]: 33.6%
HEMOGLOBIN [1]: 13.27 G/DL
LEUKOCYTE COUNT [1]: 18.93 x10E3/uL
LYMPHOCYTE [1]: 87.33%
MEAN CORPUSCULAR HEMOGLOBIN [1]: 24.23 pg
MEAN CORPUSCULAR HEMOGLOBIN CONCENTRATION [1]: 39.5 G/DL
MEAN CORPUSCULAR VOLUME [1]: 61.37 fL
MONOCYTE [1]: 2.33%
NEUTROPHIL [1]: 10.33%
NUCLEATED RED BLOOD CELLS [1]: 0 /100WBC
PLATELET COUNT [1]: 1245.33 x10E3/uL
ALANINE AMINOTRANSFERASE [1]: 68.33 u/L
ALBUMIN [1]: 3.93 G/DL
ALKALINE PHOSPHATASE [1]: 437.33 u/L
ASPARTATE AMINOTRANSFERASE [1]: 102 u/L
BLOOD UREA NITROGEN [1]: 14.67 mg/dL
CARBON DIOXIDE [1]: 28.67 mmol/L
CHLORIDE [1]: 102.33 MEQ/L
CHOLESTEROL [1]: 63.33 mg/dL
CREATINE PHOSPHOKINASE [1]: 360.67 u/L
CREATININE [1]: 0.15 mg/dL
GLUCOSE [1]: 149.67 mg/dL
LACTATE DEHYDROGENASE [1]: 593 u/L
LIPASE [1]: 12 u/L
PHOSPHORUS [1]: 11.6 mg/dL
POTASSIUM [1]: 7.04 MEQ/L
SODIUM [1]: 141.5 MEQ/L
TOTAL BILIRUBIN [1]: 0.17 mg/dL
TOTAL PROTEIN [1]: 5.37 G/DL
URIC ACID [1]: 1.53 mg/dL
ABSOLUTE BASOPHIL [2]: 0 CELLS/uL
ABSOLUTE EOSINOPHIL [2]: 54 CELLS/uL
ABSOLUTE LYMPHOCYTE [2]: 12815.33 CELLS/uL
ABSOLUTE MONOCYTE [2]: 148.67 CELLS/uL
ABSOLUTE SEGMENTED NEUTROPHIL [2]: 1848.67 CELLS/uL
BASOPHIL [2]: 0%
EOSINOPHIL [2]: 0.33%
ERYTHROCYTE COUNT [2]: 5.11 x10E6/uL
HEMATOCRIT [2]: 33%
HEMOGLOBIN [2]: 13.3 G/DL
LEUKOCYTE COUNT [2]: 14.87 x10E3/uL
LYMPHOCYTE [2]: 85.67%
MEAN CORPUSCULAR HEMOGLOBIN [2]: 26 pg
MEAN CORPUSCULAR HEMOGLOBIN CONCENTRATION [2]: 40.3 G/DL
MEAN CORPUSCULAR VOLUME [2]: 64.53 fL
MONOCYTE [2]: 1%
NEUTROPHIL [2]: 13%
NUCLEATED RED BLOOD CELLS [2]: 0.33 /100WBC
PLATELET COUNT [2]: 1200 x10E3/uL
ALANINE AMINOTRANSFERASE [2]: 64.67 u/L
ALBUMIN [2]: 4.13 G/DL
ALKALINE PHOSPHATASE [2]: 380.33 u/L
ASPARTATE AMINOTRANSFERASE [2]: 93.33 u/L
BLOOD UREA NITROGEN [2]: 13.33 mg/dL
CARBON DIOXIDE [2]: 23 mmol/L
CHLORIDE [2]: 100.67 MEQ/L
CHOLESTEROL [2]: 57.33 mg/dL
CREATINE PHOSPHOKINASE [2]: 263.67 u/L
CREATININE [2]: 0.17 mg/dL
GLUCOSE [2]: 175 mg/dL
LACTATE DEHYDROGENASE [2]: 284 u/L
LIPASE [2]: 10.67 u/L
PHOSPHORUS [2]: 12 mg/dL
POTASSIUM [2]: 6.69 MEQ/L
SODIUM [2]: 141.5 MEQ/L
TOTAL BILIRUBIN [2]: 0.2 mg/dL
TOTAL PROTEIN [2]: 5.3 G/DL
URIC ACID [2]: 1.77 mg/dL
ABSOLUTE BASOPHIL [3]: 0 CELLS/uL
ABSOLUTE EOSINOPHIL [3]: 60.67 CELLS/uL
ABSOLUTE LYMPHOCYTE [3]: 12618.67 CELLS/uL
ABSOLUTE MONOCYTE [3]: 219.33 CELLS/uL
ABSOLUTE SEGMENTED NEUTROPHIL [3]: 2034.67 CELLS/uL
BASOPHIL [3]: 0%
EOSINOPHIL [3]: 0.33%
ERYTHROCYTE COUNT [3]: 5.49 x10E6/uL
HEMATOCRIT [3]: 35%
HEMOGLOBIN [3]: 14.13 G/DL
LEUKOCYTE COUNT [3]: 14.93 x10E3/uL
LYMPHOCYTE [3]: 84%
MEAN CORPUSCULAR HEMOGLOBIN [3]: 25.83 pg
MEAN CORPUSCULAR HEMOGLOBIN CONCENTRATION [3]: 40.37 G/DL
MEAN CORPUSCULAR VOLUME [3]: 63.93 fL
MONOCYTE [3]: 1.67%
NEUTROPHIL [3]: 14%
NUCLEATED RED BLOOD CELLS [3]: 0 /100WBC
PLATELET COUNT [3]: 1213.67 x10E3/uL
ALANINE AMINOTRANSFERASE [3]: 79.67 u/L
ALBUMIN [3]: 3.83 G/DL
ALKALINE PHOSPHATASE [3]: 345 u/L
ASPARTATE AMINOTRANSFERASE [3]: 100.33 u/L
BLOOD UREA NITROGEN [3]: 10.67 mg/dL
CARBON DIOXIDE [3]: 29 mmol/L
CHLORIDE [3]: 101 MEQ/L
CHOLESTEROL [3]: 66 mg/dL
CREATINE PHOSPHOKINASE [3]: 384 u/L
CREATININE [3]: 0.14 mg/dL
GLUCOSE [3]: 162.33 mg/dL
LACTATE DEHYDROGENASE [3]: 245 u/L
LIPASE [3]: 12.33 u/L
PHOSPHORUS [3]: 11.73 mg/dL
POTASSIUM [3]: 6.15 MEQ/L
SODIUM [3]: 143.37 MEQ/L
TOTAL BILIRUBIN [3]: 0.17 mg/dL
TOTAL PROTEIN [3]: 5.43 G/DL
URIC ACID [3]: 1.5 mg/dL
ABSOLUTE BASOPHIL [4]: 0 CELLS/uL
ABSOLUTE EOSINOPHIL [4]: 43 CELLS/uL
ABSOLUTE LYMPHOCYTE [4]: 9244.67 CELLS/uL
ABSOLUTE MONOCYTE [4]: 125.67 CELLS/uL
ABSOLUTE SEGMENTED NEUTROPHIL [4]: 820 CELLS/uL
BASOPHIL [4]: 0%
EOSINOPHIL [4]: 0.33%
ERYTHROCYTE COUNT [4]: 5.69 x10E6/uL
HEMATOCRIT [4]: 34.97%
HEMOGLOBIN [4]: 13.73 G/DL
LEUKOCYTE COUNT [4]: 10.23 x10E3/uL
LYMPHOCYTE [4]: 90.33%
MEAN CORPUSCULAR HEMOGLOBIN [4]: 24.13 pg
MEAN CORPUSCULAR HEMOGLOBIN CONCENTRATION [4]: 39.3 G/DL
MEAN CORPUSCULAR VOLUME [4]: 61.43 fL
MONOCYTE [4]: 1.33%
NEUTROPHIL [4]: 8%
NUCLEATED RED BLOOD CELLS [4]: 0 /100WBC
PLATELET COUNT [4]: 1094 x10E3/uL
ALANINE AMINOTRANSFERASE [4]: 64 u/L
ALBUMIN [4]: 4.07 G/DL
ALKALINE PHOSPHATASE [4]: 422.67 u/L
ASPARTATE AMINOTRANSFERASE [4]: 91.67 u/L
BLOOD UREA NITROGEN [4]: 12 mg/dL
CARBON DIOXIDE [4]: 28 mmol/L
CHLORIDE [4]: 102.33 MEQ/L
CHOLESTEROL [4]: 57.33 mg/dL
CREATINE PHOSPHOKINASE [4]: 306.67 u/L
CREATININE [4]: 0.15 mg/dL
GLUCOSE [4]: 153 mg/dL
LACTATE DEHYDROGENASE [4]: 198.33 u/L
LIPASE [4]: 11.67 u/L
PHOSPHORUS [4]: 10.13 mg/dL
POTASSIUM [4]: 6.12 MEQ/L
SODIUM [4]: 142.33 MEQ/L
TOTAL BILIRUBIN [4]: 0.13 mg/dL
TOTAL PROTEIN [4]: 5.53 G/DL
URIC ACID [4]: 1.17 mg/dL
